One block for each compound: values may come before it.
Assays:
[1] = target: T1, Serine/threonine-protein kinase ULK1 (Homo sapiens) (UniProt O75385); test: Selectivity interaction (ActivX KiNativ screen (kinase selectivity in THP-1 cell lysates)) EUB0000639a ULK1; assay type: subcellular; conditions: lysate
T1 sequence (whole entry): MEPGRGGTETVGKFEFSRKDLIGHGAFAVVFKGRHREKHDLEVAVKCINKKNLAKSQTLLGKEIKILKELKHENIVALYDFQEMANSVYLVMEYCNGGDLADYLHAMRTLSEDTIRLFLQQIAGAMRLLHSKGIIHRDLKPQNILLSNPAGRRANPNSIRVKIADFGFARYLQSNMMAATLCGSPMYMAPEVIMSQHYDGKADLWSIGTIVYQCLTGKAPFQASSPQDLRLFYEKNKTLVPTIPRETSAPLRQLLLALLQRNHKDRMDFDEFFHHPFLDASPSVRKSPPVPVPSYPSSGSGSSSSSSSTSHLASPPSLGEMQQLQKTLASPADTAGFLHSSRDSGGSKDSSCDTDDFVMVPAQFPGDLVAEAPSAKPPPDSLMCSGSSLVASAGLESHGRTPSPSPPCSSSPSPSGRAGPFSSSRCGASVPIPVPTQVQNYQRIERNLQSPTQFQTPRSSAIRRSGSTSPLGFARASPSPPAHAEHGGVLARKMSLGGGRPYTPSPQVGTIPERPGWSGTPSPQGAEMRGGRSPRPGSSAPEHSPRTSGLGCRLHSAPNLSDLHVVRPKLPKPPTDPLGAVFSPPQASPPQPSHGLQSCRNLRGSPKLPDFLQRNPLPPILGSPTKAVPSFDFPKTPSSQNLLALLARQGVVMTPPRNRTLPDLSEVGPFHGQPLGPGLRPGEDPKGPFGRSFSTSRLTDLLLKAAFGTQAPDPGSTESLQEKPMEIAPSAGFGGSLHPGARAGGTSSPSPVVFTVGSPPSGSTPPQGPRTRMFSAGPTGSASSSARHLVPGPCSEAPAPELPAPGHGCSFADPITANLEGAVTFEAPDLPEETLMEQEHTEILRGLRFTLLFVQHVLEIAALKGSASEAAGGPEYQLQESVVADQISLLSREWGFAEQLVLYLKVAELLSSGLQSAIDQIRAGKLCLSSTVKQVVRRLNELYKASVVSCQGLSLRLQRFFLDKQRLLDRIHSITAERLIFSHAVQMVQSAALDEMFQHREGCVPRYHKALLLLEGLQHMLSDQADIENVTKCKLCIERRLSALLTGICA

[2] = target: Protein kinase C eta type (Homo sapiens) (UniProt P24723); test: Selectivity interaction (Kinase panel (Invitrogen)) EUB0000639a PRKCH; conditions: at 200 nM
[3] = target: Serine/threonine-protein kinase PLK2 (Homo sapiens, UniProt Q9NYY3)
Chain of Serine/threonine-protein kinase PLK2 (Q9NYY3 whole entry): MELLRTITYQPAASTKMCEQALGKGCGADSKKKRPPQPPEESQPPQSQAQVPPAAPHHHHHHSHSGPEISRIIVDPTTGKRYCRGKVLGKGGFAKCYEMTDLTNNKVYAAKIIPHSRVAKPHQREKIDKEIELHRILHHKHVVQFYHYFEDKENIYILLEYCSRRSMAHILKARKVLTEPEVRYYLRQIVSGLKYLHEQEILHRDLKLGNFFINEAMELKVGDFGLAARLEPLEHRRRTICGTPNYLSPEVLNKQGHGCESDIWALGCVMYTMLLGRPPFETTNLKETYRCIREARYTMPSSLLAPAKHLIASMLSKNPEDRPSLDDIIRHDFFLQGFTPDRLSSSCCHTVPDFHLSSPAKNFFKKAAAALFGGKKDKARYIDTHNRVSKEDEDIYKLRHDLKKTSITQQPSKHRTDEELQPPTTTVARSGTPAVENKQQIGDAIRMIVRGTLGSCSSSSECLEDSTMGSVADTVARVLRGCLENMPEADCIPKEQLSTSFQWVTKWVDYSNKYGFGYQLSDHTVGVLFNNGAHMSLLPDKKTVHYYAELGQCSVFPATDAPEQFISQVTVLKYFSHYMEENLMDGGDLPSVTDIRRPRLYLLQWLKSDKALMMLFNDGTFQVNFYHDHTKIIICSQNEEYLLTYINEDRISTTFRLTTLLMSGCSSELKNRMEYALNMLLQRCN

[4] = target: T2, Serine/threonine-protein kinase Chk1 (Homo sapiens) (UniProt O14757); test: Selectivity interaction (Kinase panel (literature)) EUB0001199aCl CHEK1; conditions: at 1 µM
T2 sequence (whole entry): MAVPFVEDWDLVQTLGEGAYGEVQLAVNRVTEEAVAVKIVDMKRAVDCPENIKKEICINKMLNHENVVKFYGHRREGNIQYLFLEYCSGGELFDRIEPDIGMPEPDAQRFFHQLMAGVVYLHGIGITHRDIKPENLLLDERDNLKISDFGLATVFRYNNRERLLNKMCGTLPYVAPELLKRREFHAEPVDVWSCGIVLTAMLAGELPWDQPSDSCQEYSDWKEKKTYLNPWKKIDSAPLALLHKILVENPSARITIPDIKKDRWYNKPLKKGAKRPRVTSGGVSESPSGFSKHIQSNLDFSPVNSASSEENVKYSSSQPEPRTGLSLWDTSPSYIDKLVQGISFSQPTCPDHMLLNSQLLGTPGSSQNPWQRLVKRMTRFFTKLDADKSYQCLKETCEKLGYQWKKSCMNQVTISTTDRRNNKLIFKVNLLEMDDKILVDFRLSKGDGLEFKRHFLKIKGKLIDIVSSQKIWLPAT

[5] = target: Serine/threonine-protein kinase PAK 3 (Homo sapiens) (UniProt O75914); test: Selectivity interaction (KinomeScan (DiscoverX)) EUB0001079a PAK3; conditions: at 1 µM
[6] = target: Mitogen-activated protein kinase kinase kinase 11 (Homo sapiens) (UniProt Q16584); test: Selectivity interaction (ProQinase) EUB0000171b MAP3K11
Chain of Mitogen-activated protein kinase kinase kinase 11 (Homo sapiens) (Q16584 whole entry, looked up): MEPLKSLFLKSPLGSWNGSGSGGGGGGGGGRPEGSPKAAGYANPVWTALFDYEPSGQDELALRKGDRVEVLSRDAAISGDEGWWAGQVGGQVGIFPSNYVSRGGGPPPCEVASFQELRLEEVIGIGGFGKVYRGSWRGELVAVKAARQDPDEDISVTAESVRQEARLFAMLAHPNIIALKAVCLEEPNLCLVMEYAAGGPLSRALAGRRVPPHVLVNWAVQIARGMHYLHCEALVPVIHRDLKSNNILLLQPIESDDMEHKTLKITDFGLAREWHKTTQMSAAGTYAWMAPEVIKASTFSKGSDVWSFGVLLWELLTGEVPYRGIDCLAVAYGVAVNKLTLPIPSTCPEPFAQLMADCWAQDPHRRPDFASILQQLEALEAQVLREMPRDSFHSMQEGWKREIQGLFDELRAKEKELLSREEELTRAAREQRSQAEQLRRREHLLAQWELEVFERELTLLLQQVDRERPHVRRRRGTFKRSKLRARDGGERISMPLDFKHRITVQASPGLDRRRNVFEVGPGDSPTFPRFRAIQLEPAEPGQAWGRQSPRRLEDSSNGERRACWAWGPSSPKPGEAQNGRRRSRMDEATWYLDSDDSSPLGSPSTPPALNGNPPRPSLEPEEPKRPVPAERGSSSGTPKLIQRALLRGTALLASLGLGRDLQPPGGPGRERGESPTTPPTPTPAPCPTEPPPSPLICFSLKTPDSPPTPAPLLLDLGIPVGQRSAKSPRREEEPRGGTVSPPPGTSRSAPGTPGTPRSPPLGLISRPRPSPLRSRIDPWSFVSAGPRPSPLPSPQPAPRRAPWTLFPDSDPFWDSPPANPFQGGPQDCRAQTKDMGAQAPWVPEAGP

[7] = target: Serine/threonine-protein kinase N1 (Homo sapiens, UniProt Q16512); test: Selectivity interaction (KinomeScan (DiscoverX)) EUB0000045b PKN1
Chain of Serine/threonine-protein kinase N1 (Q16512 2-942 limits assumed): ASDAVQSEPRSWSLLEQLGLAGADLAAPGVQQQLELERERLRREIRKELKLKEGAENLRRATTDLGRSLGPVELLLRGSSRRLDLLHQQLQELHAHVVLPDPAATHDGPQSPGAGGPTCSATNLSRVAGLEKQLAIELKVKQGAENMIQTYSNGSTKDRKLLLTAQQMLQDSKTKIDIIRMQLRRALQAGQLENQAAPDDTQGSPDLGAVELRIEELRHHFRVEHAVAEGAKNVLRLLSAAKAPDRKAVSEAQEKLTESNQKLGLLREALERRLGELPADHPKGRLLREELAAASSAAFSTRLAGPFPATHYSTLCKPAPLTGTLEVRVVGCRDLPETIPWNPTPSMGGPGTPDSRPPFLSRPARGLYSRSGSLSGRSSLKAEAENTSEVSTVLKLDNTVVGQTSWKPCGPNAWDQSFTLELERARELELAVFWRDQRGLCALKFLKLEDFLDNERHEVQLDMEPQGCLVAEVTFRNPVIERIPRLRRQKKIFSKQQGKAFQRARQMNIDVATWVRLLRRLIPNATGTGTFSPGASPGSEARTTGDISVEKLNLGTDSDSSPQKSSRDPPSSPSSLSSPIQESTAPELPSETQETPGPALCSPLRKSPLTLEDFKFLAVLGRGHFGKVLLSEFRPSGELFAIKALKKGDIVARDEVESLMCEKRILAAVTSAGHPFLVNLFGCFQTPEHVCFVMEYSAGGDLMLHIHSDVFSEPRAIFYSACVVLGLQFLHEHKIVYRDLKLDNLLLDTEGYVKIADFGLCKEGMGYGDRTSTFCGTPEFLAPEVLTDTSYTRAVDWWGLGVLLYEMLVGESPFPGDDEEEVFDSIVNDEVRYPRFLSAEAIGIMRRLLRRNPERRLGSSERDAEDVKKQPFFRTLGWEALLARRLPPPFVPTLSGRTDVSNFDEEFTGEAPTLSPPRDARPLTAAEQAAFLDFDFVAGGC

[8] = target: STE20-like serine/threonine-protein kinase (Homo sapiens, UniProt Q9H2G2); test: Selectivity interaction (KinomeScan (DiscoverX)) EUB0000655a SLK; conditions: at 10 µM
Chain of STE20-like serine/threonine-protein kinase (Q9H2G2 whole entry, looked up): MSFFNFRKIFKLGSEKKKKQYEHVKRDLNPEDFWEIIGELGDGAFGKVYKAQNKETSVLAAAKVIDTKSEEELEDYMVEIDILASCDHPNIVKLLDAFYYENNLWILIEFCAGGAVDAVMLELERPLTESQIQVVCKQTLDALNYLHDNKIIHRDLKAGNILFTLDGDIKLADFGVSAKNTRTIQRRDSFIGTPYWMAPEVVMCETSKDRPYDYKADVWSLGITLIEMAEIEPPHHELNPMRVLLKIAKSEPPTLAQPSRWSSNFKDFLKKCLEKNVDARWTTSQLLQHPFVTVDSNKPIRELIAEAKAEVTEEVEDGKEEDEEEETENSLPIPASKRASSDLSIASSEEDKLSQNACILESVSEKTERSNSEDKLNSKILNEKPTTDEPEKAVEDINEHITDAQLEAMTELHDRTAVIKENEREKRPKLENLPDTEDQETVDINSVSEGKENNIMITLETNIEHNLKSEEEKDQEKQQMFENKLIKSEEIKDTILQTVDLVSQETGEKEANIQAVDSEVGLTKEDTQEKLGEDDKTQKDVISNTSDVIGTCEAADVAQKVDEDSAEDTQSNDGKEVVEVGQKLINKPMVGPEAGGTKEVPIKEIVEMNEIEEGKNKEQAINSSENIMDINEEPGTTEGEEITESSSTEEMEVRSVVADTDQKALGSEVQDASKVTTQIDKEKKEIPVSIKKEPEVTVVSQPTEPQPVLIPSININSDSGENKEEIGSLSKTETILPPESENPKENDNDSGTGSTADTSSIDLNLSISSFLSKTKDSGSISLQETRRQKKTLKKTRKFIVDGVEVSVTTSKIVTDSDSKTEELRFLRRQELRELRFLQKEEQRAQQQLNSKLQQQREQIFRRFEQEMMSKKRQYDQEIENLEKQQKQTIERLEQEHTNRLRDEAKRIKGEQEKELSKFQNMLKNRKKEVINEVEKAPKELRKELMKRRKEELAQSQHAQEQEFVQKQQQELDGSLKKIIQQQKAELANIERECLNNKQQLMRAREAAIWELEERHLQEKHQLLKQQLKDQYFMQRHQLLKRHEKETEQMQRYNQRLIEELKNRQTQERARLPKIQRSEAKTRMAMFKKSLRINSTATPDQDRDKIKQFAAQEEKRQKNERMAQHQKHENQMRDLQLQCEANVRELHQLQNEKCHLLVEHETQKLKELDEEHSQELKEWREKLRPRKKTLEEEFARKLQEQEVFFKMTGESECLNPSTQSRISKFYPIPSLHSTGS

[9] = target: Citron Rho-interacting kinase (Homo sapiens) (UniProt O14578); test: Selectivity interaction (KinomeScan (DiscoverX)) EUB0001619a CIT; conditions: at 1 µM
[10] = target: T3, Serine/threonine-protein kinase RIO1 (Homo sapiens) (UniProt Q9BRS2); test: Selectivity interaction (KinomeScan (DiscoverX)) EUB0000607a RIOK1; conditions: at 10 µM
T3 sequence (whole entry): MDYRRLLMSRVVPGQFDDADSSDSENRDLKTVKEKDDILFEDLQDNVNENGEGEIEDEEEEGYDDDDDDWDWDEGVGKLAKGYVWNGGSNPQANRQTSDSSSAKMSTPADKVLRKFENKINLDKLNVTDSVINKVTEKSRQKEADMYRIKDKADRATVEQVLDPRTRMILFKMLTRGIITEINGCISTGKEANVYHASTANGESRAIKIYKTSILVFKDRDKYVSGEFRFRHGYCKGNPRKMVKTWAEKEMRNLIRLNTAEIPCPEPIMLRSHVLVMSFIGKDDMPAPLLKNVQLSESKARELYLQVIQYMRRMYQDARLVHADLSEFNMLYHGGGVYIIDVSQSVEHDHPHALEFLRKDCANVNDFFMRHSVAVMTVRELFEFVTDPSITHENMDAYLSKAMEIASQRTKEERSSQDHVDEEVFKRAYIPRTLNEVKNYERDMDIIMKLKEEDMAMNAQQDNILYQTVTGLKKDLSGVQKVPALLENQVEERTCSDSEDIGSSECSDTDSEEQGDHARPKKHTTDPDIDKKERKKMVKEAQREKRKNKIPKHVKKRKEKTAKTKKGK

[11] = target: Insulin receptor (Homo sapiens, UniProt P06213); test: Selectivity interaction (SelectScreen profiling (Invitrogen)) EUB0000607a INSR; conditions: at 2 µM
Chain of Insulin receptor (P06213 28-758 limits assumed): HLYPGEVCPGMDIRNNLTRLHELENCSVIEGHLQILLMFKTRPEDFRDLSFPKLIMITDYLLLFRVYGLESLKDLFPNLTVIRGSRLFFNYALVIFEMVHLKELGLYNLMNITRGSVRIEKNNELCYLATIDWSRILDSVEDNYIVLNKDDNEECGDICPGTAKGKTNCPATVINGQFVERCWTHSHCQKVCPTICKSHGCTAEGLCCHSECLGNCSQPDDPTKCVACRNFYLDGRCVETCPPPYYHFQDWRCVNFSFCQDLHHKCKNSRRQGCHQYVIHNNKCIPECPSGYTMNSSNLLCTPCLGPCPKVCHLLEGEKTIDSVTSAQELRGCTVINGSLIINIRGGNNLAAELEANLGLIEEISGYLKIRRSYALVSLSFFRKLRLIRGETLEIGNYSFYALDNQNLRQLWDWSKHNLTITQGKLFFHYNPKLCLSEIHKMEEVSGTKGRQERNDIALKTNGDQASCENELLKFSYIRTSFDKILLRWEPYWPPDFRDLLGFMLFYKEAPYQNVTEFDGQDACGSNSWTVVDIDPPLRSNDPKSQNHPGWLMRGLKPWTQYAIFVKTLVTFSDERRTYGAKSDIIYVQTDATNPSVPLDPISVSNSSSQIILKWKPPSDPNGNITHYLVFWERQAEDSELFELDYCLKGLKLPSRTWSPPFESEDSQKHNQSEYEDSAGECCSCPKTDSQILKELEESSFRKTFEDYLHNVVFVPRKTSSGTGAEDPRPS
Chain of Insulin receptor (P06213 763-1382 limits assumed): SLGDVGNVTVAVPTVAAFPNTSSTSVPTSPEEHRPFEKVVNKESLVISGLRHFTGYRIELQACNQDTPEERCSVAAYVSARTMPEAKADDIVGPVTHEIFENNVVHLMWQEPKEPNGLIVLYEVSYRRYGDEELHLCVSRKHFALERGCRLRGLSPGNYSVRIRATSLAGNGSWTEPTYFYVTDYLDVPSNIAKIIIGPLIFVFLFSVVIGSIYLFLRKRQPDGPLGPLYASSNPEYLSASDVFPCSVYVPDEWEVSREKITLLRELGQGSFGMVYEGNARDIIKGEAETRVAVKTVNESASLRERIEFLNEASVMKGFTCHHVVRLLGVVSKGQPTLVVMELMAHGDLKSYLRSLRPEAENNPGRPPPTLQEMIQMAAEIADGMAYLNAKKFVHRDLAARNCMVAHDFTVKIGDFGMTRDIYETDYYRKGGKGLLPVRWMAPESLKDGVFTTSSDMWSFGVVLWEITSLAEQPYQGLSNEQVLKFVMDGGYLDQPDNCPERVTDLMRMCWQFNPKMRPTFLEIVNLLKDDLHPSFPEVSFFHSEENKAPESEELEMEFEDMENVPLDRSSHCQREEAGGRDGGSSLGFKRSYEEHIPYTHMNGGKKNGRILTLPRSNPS

% of inhibition ([1]; at 0.01 µM): 4.8% | % of inhibition ([1]; at 0.04 µM): 4.1% | % of inhibition ([1]; at 0.2 µM): 6.2% | % of inhibition ([1]; at 1 µM): -18.5% | % of inhibition ([1]; at 5 µM): 8% | % of inhibition [2]: 7.47%
Structure (SMILES): CC[C@@H]1[C@H](F)C(=O)N[C@@H]1COc1nccc2cc(C(N)=O)c(OC)cc12 [ZIMLOVISERTIB]

IC50 [3]: > 10 µM
Structure (SMILES): CCc1cccc(CC)c1NC(=O)c1nn(C)c2c1CCc1cnc(Nc3ccc(C(=O)NC4CCN(C)CC4)cc3OC(F)(F)F)nc1-2

% of inhibition [4]: 7%
Structure (SMILES): CN1Cc2nccc(-c3cn(C)nc3-c3ccc(F)cc3)c2C1=O

Structure (SMILES): Nc1cnc(N2CCc3cc(S(=O)(=O)Nc4c(F)cc(Cl)cc4F)cc(N4CCCC4=O)c32)nc1 [TP-020n]
% of control [5]: 100%

% of control ([6]; at 1 µM): 28% | % of control ([6]; at 5 µM): 13%
Structure (SMILES): C=CC(=O)Nc1cccc(C(=O)Nc2ccc(Nc3cc(-c4[nH]c(SC)nc4C)ccn3)cc2)c1

Structure (SMILES): C=CC(=O)Nc1cc(-n2c(=O)ccc3cnc4ccc(-c5ccc(NS(C)(=O)=O)cc5)cc4c32)ccc1C
% of control ([7]; at 1 µM): 100% | % of control ([7]; at 10 µM): 99%

Structure (SMILES): CN(C)CCOc1ccc(-c2nc(-c3ccncc3)c(-c3ccc4c(c3)CC/C4=N\O)[nH]2)cc1
% of control [8]: 1.3%

Structure (SMILES): N#Cc1cccc(-c2c[nH]c3ncnc(N4CCOCC4)c23)c1
% of control [9]: 100%

Structure (SMILES): CNC(=O)Nc1ccc(-c2nc(N3CC4CCC(C3)O4)c3cnn(C4CCC5(CC4)OCCO5)c3n2)cc1
% of control [10]: 91% | % of inhibition [11]: 4%

— ChEMBL document CHEMBL5465560, “Selectivity Literature for EUbOPEN Chemogenomic Library” (2024)
